Assay results: patent publication US20090012148A1, “REDUCING CELLULAR CHOLESTEROL LEVELS AND/OR TREATING OR PREVENTING PHOSPHOLIPIDOSIS” (priority 2005, published 2009)

Legend:
Assay type in all cases: cell-based, Chinese hamster
[1] = tested on: CT43 cells; test: Toxicity assay by cell count (Hoechst 33258); settings: 24 h
Protocol: (§1) To measure toxicity, we treated CT60 and CT43 cells with compounds at 5, 10 and 20 μM for 24 h. The cell number per well was compared to control cells treated with DMSO (FIG. 7). […] Compound 1-a-14 did cause a 50% reduction in cell number at 10 μM for CT60 and an 80% reduction for CT43 cells. Compounds 1-a-4, 5, 6, 8 and 13 were partially toxic as indicated by 20-30% reduction in cell number after 24 h at 10 μM. Procedure Using Cell Count Assay: Compounds were added to CT60 and CT43 cells plated in 384 well plates at 0 (DMSO solvent control), 5, 10 and 20 μM concentrations in quadruplicate using methods similar to the dose dependence assay, except that the cells were stained with Hoechst 33258 nuclear stain. The final DMSO concentration in each well was 0.2%. For the control cells an equivalent amount of DMSO was added to the cells. The cells were incubated for 24, 48 and 72 h. After each time period, cells were washed and then fixed with 1.5% PFA. After washing the cells three times with PBS, the nuclei of the cells were stained using 5 μg/ml Hoechst 33258 (25 mg/ml stock solution in DMSO) in PBS for 45 m at room temperature. Finally, cells were washed three times with PBS, and images were obtained using a Nikon 4× Plan Apo 0.2NA objective. For Hoechst imaging we used the same filter set as for filipin. We collected one 520×696 pixel image per well at 12 intensity bits per pixel. Each pixel is 3.125 by 3.125 μm in […] the object. Cells were counted by defining the standard area of single nuclei (˜200 μm^2) interactively for each plate using the Integrated Morphometry Analysis function of MetaMorph. The number of standard areas per object above a threshold was determined, and the total number of standard areas per image was used as the cell count. The percent reduction in the number of cells compared to DMSO control was calculated for each concentration and time.

[2] = tested on: CT60 cells; test: Toxicity assay by cell count (Hoechst 33258)
Protocol: as §1

[3] = tested on: CT60 cells; test: Gas chromatography cholesterol assay
Protocol: The cholesterol lowering effect of the 14 hit compounds identified by filipin labeling was measured by an alternative chemical method that involved GC separation of solvent-extracted cellular lipids (43). CT60 cells were treated with compounds at 10 μM under the same conditions as in the screening assays. Since the GC assay estimates FC content per cell, the values are compared to the average filipin intensity assay (Table 1).
CT60 or CT43 cells were plated on day 1 in 6-well plates. Hit compounds were added to the cells at 10 μM concentration. Cells were incubated for 24 h. Cellular lipids were extracted with hexane: iso-propyl alcohol (3:2 v/v). The lipid extracts were dried and re-suspended in hexane followed by separation on gas chromatograph using β-sitosterol as an internal standard.
Procedure: CT60 cells were plated in 6-well plates in Ham's F-12/1.176 g/L sodium bicarbonate/2 g/L glucose/10% FBS. Following 24 h incubation, cells were treated with 10 μM of each compounds, medium being replaced with Ham's F-12/1.176 g/L sodium bicarbonate/2 g/L glucose/5.5% FBS/20 mM HEPES. The change of the medium in the wells was performed to have experimental conditions similar to those used for the screening once chemical compounds were added to the cells. After 18 h treatment with compounds, cells were washed twice with Hank's balanced salt solutions (HBSS). Cellular lipids were extracted with hexane/isopropyl alcohol (3:2 v/v) (43) dried and resuspended in hexane followed by separation on a gas chromatograph (GC) using following conditions. A Hewlett Packard GC model HP 5890 series II (Palo Alto, Calif.) equipped with a flame ionization detector, split-splitless injector, and 15 m×0.53 mm HP-5 capillary column coated with […] film thickness of 5% phenyl methyl siloxane was used to separate free cholesterol. The injection temperature was maintained at 255° C. and oven temperature was held isothermally at 260° C. using helium as a mobile phase at 30 mL/min flow rate. The free cholesterol (FC) was quantified using beta-sitosterol as internal standard to correct for lipid losses during extraction.

[4] = tested on: CT60 cells; test: DiI-LDL uptake; settings: DiI-LDL 6 μg/ml, compounds 10 μM, 20 hours, ±SEM
Protocol: CT60 cells were grown to 70% confluency in 96 well special optics plates (Corning, Inc., Corning, N.Y.). After 24 hours, cells were incubated with DiI-LDL (6 μg/ml) and hit compounds (10 μM) in screening medium supplemented with 20 mM HEPES. Each compound was added to 8 wells and an equivalent amount of DMSO with DiI-LDL was added to control wells. After 20 h, cells were washed three times with PBS, fixed with 1.5% PFA for 20 min, and stained with 50 μg/ml filipin for 45 min. Images were acquired using the Discovery-1 automatic fluorescence microscope at 20× magnification. DiI-LDL images were acquired using 535 nm/40 nm excitation filter and 610 nm/60 nm band pass with a Chroma 51001bs DiChroic filter. Filipin images were acquired as described above. Images were acquired for 4 sites per well, yielding 32 images per compound. The DiI-LDL images were background and shade corrected as described above. A low threshold was set to define the cell area based on filipin images. Finally, the average DiI-LDL intensity was measured per cell area.
Cells were incubated with DiI-LDL (6 μg/ml) in the presence of compounds (10 μM) for 20 hours. The intensity per unit cell area was measured as described in Methods. Values are normalized to the intensity per cell area for control (solvent-treated) cells. Values are based on averages from 32 images from 8 wells for each condition. ±SEM.

[5] = tested on: 25RA CHO cells; test: 3H cholesterol efflux assay on 25RA CHO cells; settings: 10 μM, overnight chase
Protocol: 25RA CHO cells were incubated with 10 μM concentrations of compound 2-a-1, 2-a-3,2-a-8, 2-a-9, and 2-a-13. Cells were loaded with ^3H cholesterol and then chased overnight in the presence or absence of the various compounds. The media over the cells were removed, and radioactivity released from the cells was measured. The cells were then solubilized, and radioactivity remaining in the cells was measured. […] The 25-RA cells do have a defect in SCAP, which alters cholesterol homeostasis, including increased synthesis of cholesterol.

Row | SMILES | reduction in cell number ([1]; 10 μM) [%] | reduction in cell number ([2]; 10 μM, 24 h) [%] | μg FC/μg Protein by GC Fraction of control ([3]; 10 μM, FC = free cholesterol) | DiI Intensity/cell area Fraction of control [4] | Cell Count After 24 h @ 10 μM dose Fraction of Control ([2]; 10 μM) | μg FC/μg Protein (GC) @ 10 μM dose Fraction of Control [3] | efflux of cholesterol [5] | reduction in the number of cells ([1]; 20 μM) [%] | reduction in the number of cells ([2]; 20 μM, 24 h) [%]
1 | CCOc1cccc2cc(-c3csc(Nc4cccc(C(F)(F)F)c4)n3)c(=O)oc12 [Compound 1-a-14] | 80 | 50 | 1.44 ± 0.16 Fraction of control | – | – | – | – | – | –
2 | CCN(CC)c1ccc(C=C2SC(=S)N(c3ccc(OC)cc3)C2=O)cc1 [Compound 2-a-3] | – | – | – | 0.62 ± 0.01 Fraction of control | 1.00 Fraction of Control | 0.81 ± 0.03 Fraction of Control | promote efflux of cholesterol | – | –
3 | COc1ccccc1Nc1nc(Nc2ccccc2OC)nc(Nc2ccccc2OC)n1 [Compound 2-a-9] | – | – | – | 0.85 ± 0.01 Fraction of control | 0.90 Fraction of Control | 0.75 ± 0.04 Fraction of Control | promote efflux of cholesterol | – | –
4 | FC(F)(F)COc1nc(NN=Cc2cccc(I)c2)nc(N(c2ccccc2)c2ccccc2)n1 [Compound 2-a-12] | – | – | – | 0.72 ± 0.01 Fraction of control | 0.67 Fraction of Control | – | – | 75 | 75
5 | O=[N+]([O-])c1cccc(C=NNc2nc(Nc3cccc4ccccc34)nc(N(c3ccccc3)c3ccccc3)n2)c1 [Compound 2-a-13] | – | – | – | 0.72 ± 0.01 Fraction of control | 1.00 Fraction of Control | 0.79 ± 0.04 Fraction of Control | promote efflux of cholesterol | – | –
6 | C=CCN1C(=O)C(=Cc2cc(C)n(-c3ccccc3)c2C)C(C(=O)OC)=C1C [Compound 2-a-15] | – | – | – | 1.00 ± 0.01 Fraction of control | 0.94 Fraction of Control | 0.89 ± 0.03 Fraction of Control | – | – | –
